Some test systems named below: Staphylococcus aureus; Escherichia coli W160-37; Escherichia coli UB1005; Candida albicans; Escherichia coli; Pseudomonas aeruginosa; Acinetobacter baumannii.
Holding throughout (experiment): ≥ marks a high value that may be exact or a test limit, other limits are often not marked, values filed in µg/mL are converted to µM
The test system of experiment [1] is Pseudomonas aeruginosa H103.
Experiment [2] deals with Salmonella enterica serovar Typhimurium.
In experiment [3] the test system is Enterococcus faecalis ATCC 29212.
The subject of experiment [4] is Staphylococcus epidermidis.
Experiment [5] concerns Staphylococcus aureus ATCC 25923.
In experiment [6] the test system is Salmonella enterica subsp. enterica serovar Typhimurium C77-31.
The test system of experiment [7] is Staphylococcus aureus ATCC 29213.
Experiment [8] has as its system Salmonella enterica subsp. enterica serovar Pullorum C79-13.
Experiment [9] has as its system Staphylococcus epidermidis ATCC 12228.
For experiment [10], the system named is Escherichia coli ATCC 25922.

≈ marks a conversion by molar mass, not a printed value. Where only a bound is given, the exact number is not on record here.

Our source for the MIC values is DBAASP.

The MIC is the lowest concentration found to suppress growth.

Take `CC[C@H](C)[C@H](N)C(=O)N[C@H](C(=O)N[C@@H](CO)C(=O)N[C@H](C(=O)N[C@H](C(=O)NCC(=O)N[C@@H](CCCCN)C(=O)N[C@@H](CC(C)C)C(=O)N[C@H](C(=O)N[C@@H](CCCCN)C(=O)N[C@@H](Cc1c[nH]c2ccccc12)C(=O)N[C@H](C(=O)N[C@H](C(=O)N[C@@H](CC(=O)O)C(=O)N[C@H](C(=O)N[C@H](C(=O)O)C(C)C)[C@@H](C)O)[C@@H](C)CC)[C@@H](C)CC)C(C)C)[C@@H](C)CC)[C@@H](C)O)[C@@H](C)CC` [IISTIGKLVKWIIDTV]: the MIC in the experiment with Staphylococcus aureus is 18.8 µM (≈ 33.8 µg/mL); in the experiment on Escherichia coli W160-37, 8 µM (≈ 14.4 µg/mL).

`CC[C@H](C)[C@H](NC(=O)[C@H](CCCN=C(N)N)NC(=O)[C@@H](NC(=O)[C@H](Cc1c[nH]c2ccccc12)NC(=O)[C@H](Cc1c[nH]c2ccccc12)NC(=O)[C@@H](N)CCCN=C(N)N)[C@@H](C)CC)C(=O)N[C@@H](CCCN=C(N)N)C(=O)N[C@@H](Cc1c[nH]c2ccccc12)C(=O)N[C@@H](Cc1cnc[nH]1)C(=O)O` [RWWIRIRWH]: the MIC in [1] is 10.7 µM (≈ 15.1 µg/mL); in experiment [2], 2.7 µM (≈ 3.8 µg/mL); against Escherichia coli UB1005, 1.3 µM (≈ 1.83 µg/mL); in experiment [3], 2.7 µM (≈ 3.8 µg/mL); in experiment [4] it was 1.3 µM (≈ 1.83 µg/mL); in experiment [5], 1.3 µM (≈ 1.83 µg/mL). This compound yielded an MIC with Candida albicans of 10.7 µM (≈ 15.1 µg/mL).

Turning to `NCCCC[C@H](NC(=O)CNC(=O)[C@H](CC(N)=O)NC(=O)[C@H](CCC(=O)O)NC(=O)[C@H](Cc1c[nH]c2ccccc12)NC(=O)[C@H](CCCCN)NC(=O)[C@H](Cc1c[nH]c2ccccc12)NC(=O)[C@H](CCCCN)NC(=O)[C@@H](N)Cc1c[nH]c2ccccc12)C(=O)N[C@@H](Cc1c[nH]c2ccccc12)C(=O)N[C@@H](CCCCN)C(=O)N[C@@H](Cc1c[nH]c2ccccc12)C(=O)N[C@@H](CCC(N)=O)C(=O)N[C@@H](Cc1c[nH]c2ccccc12)C(=O)O` [WKWKWENGKWKWQW], the MIC is no less than 64 µM in experiment [6]; greater than 128 µM in experiment [7]; 16 µM (≈ 33.2 µg/mL) in [8]; greater than 128 µM in [9]; greater than 128 µM in experiment [3]; 32 µM (≈ 66.4 µg/mL) in experiment [10].

As to `CC(C)[C@H](NC(=O)[C@H](CCCN=C(N)N)NC(=O)[C@H](Cc1c[nH]c2ccccc12)NC(=O)[C@H](CCCN=C(N)N)NC(=O)[C@@H](NC(=O)[C@H](CCCCN)NC(=O)[C@H](Cc1c[nH]c2ccccc12)NC(=O)[C@H](CCCN=C(N)N)NC(=O)[C@@H](NC(=O)[C@H](CCCN=C(N)N)NC(=O)[C@@H](N)Cc1c[nH]c2ccccc12)C(C)C)[C@@H](C)O)C(=O)N[C@@H](CCCCN)C(N)=O` [WRVRWKTRWRVK], the MIC in [6] came out at 4 µM (≈ 7.02 µg/mL); against Staphylococcus aureus, 4 µM (≈ 7.02 µg/mL); in [7], 2 µM (≈ 3.51 µg/mL); with Escherichia coli UB1005, 2 µM (≈ 3.51 µg/mL); in [9] it was 4 µM (≈ 7.02 µg/mL); in the experiment on Escherichia coli, 4 µM (≈ 7.02 µg/mL). The MIC in the experiment on Pseudomonas aeruginosa stood at 32 µM (≈ 56.2 µg/mL); in experiment [10] it was 4 µM (≈ 7.02 µg/mL); with Acinetobacter baumannii, 8 µM (≈ 14 µg/mL); in [5], 4 µM (≈ 7.02 µg/mL).
